Results published in US20220251085A1, “CYSTEINE BINDING COMPOSITIONS AND METHODS OF USE THEREOF” (University of Virginia Patent Foundation, priority 2019, published 2022).

Tests used:
[1] = HPLC assay for profiling solution reactivity and stability of purine fragments (probes) with amino acid mimetics; format: physicochemical; settings: for reaction with butanethiol: cysteine mimetic
Description: HPLC assay for profiling solution reactivity and stability of purine fragments: The following reagents were prepared and stored on ice prior to use. 0.1 molar (M) solution of caffeine in acetonitrile, 1.0 M solution of amino acid mimetic (butanethiol—cysteine mimetic; n-butylamine—lysine mimetic; p-cresol—tyrosine mimetic; propionamide-asparagine/glutamine mimetic; butyric acid—aspartic/glutamic acid mimetic), tetramethylguanidine (TMG), 1 M acetic acid (HOAc) in acetonitrile (ACN) and 10 mM solution of purine fragment in ACN mixture. 500 μL of fragment solution were transferred to a dram vial on ice. To the mixture, 5.5 μL of TMG and 5.5 μL of respective amino acid mimetic were added and solutions were stirred on ice for 6 h. To monitor reactivity, 50 μL aliquots were removed at indicated time points and quenched with 10 μL of a 1:1 mixture of caffeine and HOAc. Samples were injected (1 μL) and analyzed by reverse-phase HPLC on a Shimadzu 1100 Series spectrometer (Shimadzu Corporation, Kyoto, Japan) with UV detection at 254 nm. Reaction progress was evaluated by monitoring consumption of starting material (purine fragment) normalized to caffeine standard. Chromatographic separation was performed using a Phenomenex Kinetex C18 column (2.6 μm, 50×4.6 mm; Phenomenex, Torrance, Calif., United States of America). Mobile phases A and B were composed of H2O+0.1% HOAc and ACN+0.1% HOAc, respectively. […] All purine fragment peak AUCs used for calculations were normalized to caffeine standard AUCs at respective time points to account for run-to-run variations by HPLC. The amount of purine fragment consumed (% starting material) was plotted as a function of time.
Discussion: An HPLC assay for determining the reactivity of the purine-based probes with mimetics of amino acid residues was performed. […] Reaction progress was monitored by monitoring the disappearance of starting material and appearance of product via HPLC.

[2] = system: C57Bl/6 mice; experiment: In vivo activity of purine probes in mouse tissues, gel-based; settings: for time of peak / most robust labeling in vivo: 20 mg/kg probe
Description: Mouse Treatment and Tissue Preparation Methods: 8-12 week old male and female C57Bl/6 mice were treated intraperitoneally (IP) or by oral gavage (OG) with either AHL125 (Pu-1 or AHL-Pu-1), AHL128 (Pu-2 or AHL-Pu-2), or vehicle (18:1:2, PBS:PEG40:DMSO) at 20 mg/kg unless stated otherwise. Treatment time is indicated in the experiment below. Mice were then euthanized and perfused using PBS. Tissues were then harvested, rinsed and flash frozen using liquid nitrogen and stored at −80° C. until further use. Tissues were lysed using dounce homgenization in the presence of PBS+protease inhibitor. Initial suspensions were centrifuged at 3000×g for 5 minutes to remove insoluble material. The lysate was collected and centrifuged again at 100,000×g for 45 minutes to obtain the soluble fraction. Purine probe modified proteins from treated mice were conjugated to rhodamine-azide by CuAAC, subjected to SDS-PAGE analysis, and detected by in-gel fluorescence scanning. SDS-PAGE gels were stained with Coomassie brilliant blue to determine protein load. All samples were loaded with equivalent amounts of protein. Thus, changes in purine probe labeling is not due to loading of different proteome amounts.
Mice were also treated with 80 mg/kg oral gavage (OG) to determine whether purine probes are orally bioavailable. Mice were treated for four hours.

[3] = system: DM93 cells; experiment: Live cell activity of purine probes, gel-based (CuAAC rhodamine-azide, in-gel fluorescence); settings: for labeling profile in live cells: DM93 cells, 25 μM, 4 hours
Description: Live Cell Activity Method: DM93 cells were grown at 37° C. in 5% CO2 until 90% confluent. Once confluent cells were washed with serum free media and treated with halogenated purine probes at a final concentration of 25 μM (unless stated) for 4 hours (unless stated). Cells were then scraped and washed 3× with cold PBS and lysed in PBS+protease inhibitor. Lysates were spun at 100,000×g for 45 minutes. Halogen probe-modified proteins in soluble fractions were visualized by conjugating rhodamine-azide using copper-catalyzed azide-alkyne cycloaddition (CuAAC; 1 hour, room temperature), subjected to SDS-PAGE, and detected by in-gel fluorescence scanning. SDS-PAGE gels were also stained with Coomassie brilliant blue to determine protein load. All samples were loaded with equivalent amounts of protein. Thus, changes in purine probe labeling is not due to loading of different proteome amounts.

SMILES | reaction with butanethiol ([1]; on ice 6 h) | reactivity with lysine mimetic ([1]; n-butylamine, on ice 6 h) | time of peak / most robust labeling in vivo [2] | labeling profile in live cells [3] | time dependence of labeling ([3]; live cells) | solution-based reactivity with amino acid mimetics ([1]; HPLC, % starting material consumed, on ice 6 h) | reaction kinetics compared to N9 counterparts ([1]; butanethiol, versus Pu-2, Pu-4, Pu-10) | reactivity towards nucleophilic attack, N7 versus N9 tautomer ([1]; compared with Pu-2) | tissue with highest activity [2] | labeling profile in vivo across tissues ([2]; IP or OG, lung, liver, spleen, heart, brain, kidney, WAT) | reactivity of N7 versus N9 tautomers ([3]; live DM93 cells) | concentration dependence of labeling ([3]; live cells)
C#CCn1cnc2c(Cl)nc(Cl)nc21 [Pu-2, 2,6-Dichloro-9-(prop-2-yn-1-yl)-9H-purine] | react with butanethiol | mild lysine (Lys) reactivity | 4 h | robust labeling profiles | react in a time dependent manner |  |  |  |  |  |  | 
C#CCn1cnc2nc(Cl)nc(Cl)c21 [Pu-1, 2,6-Dichloro-7-(prop-2-yn-1-yl)-7H-purine] | react with butanethiol |  | 2 h | robust labeling profiles | react in a time dependent manner | modifies cysteine (Cys) and tyrosine (Tyr) amino acid mimetics | accelerated reaction kinetics | more reactive towards nucleophilic attack | highest activity in lung | most robust labeling profile in vivo | more reactive | concentration dependent labeling
